Measured values reported in patent US11311562B2, “Methods for reducing the incidence of oxidative stress using human milk oligosaccharides, vitamin c and anti-inflammatory agents” (priority 2010, dated 2022).

Experiments:
[1] = tested on: respiratory syncytial virus (RSV); type: cell-based; conditions: HMOs added at 1 mg/mL or 10 mg/mL; virus dose about 500-1,000 units/mL
IP-10 = IP-10 in supernatants of HMO-pretreated, RSV-infected PBMCs; type: cell-based, human; conditions: for IP-10 in virus-infected variables: RSV MOI 0.1, 24 h pretreatment, both donors, FIGS. 3-6; for IP-10 in virus-infected variables / reducing inflammation caused by RSV: PBMCs; for reducing inflammation caused by RSV: pretreatment for 24 hours
Method: (§1) Specifically, either 3′SL or 6′SL is added, at concentrations of 0.1 mg/mL, 0.2 mg/mL, or 0.5 mg/mL to fresh peripheral blood mononuclear cells (PBMCs) and incubated at 37° C. in 5% CO2 to pretreat the cells for approximately 24 hours. LNnT is added, at concentrations of 0.1 mg/mL, 0.2 mg/mL, or 1 mg/mL to PBMCs and incubated at 37° C. in 5% CO2 to pretreat the cells for approximately 24 hours. Lactose is included as a carbohydrate control. Matched endotoxin unit concentration controls are included to allow differentiation of ingredient effects from inherent low levels of endotoxin. Some variables are then incubated with RSV at a multiplicity of infection (MOI) of 0.1 for approximately 1 hour at 37° C. in 5% in CO2. Uninfected control variables are incubated with medium for approximately 1 hour at 37° C. in 5% CO2. After approximately one hour, fresh medium alone, or fresh medium containing the appropriate concentration of 3′SL, 6′SL, LNnT, lactose, or endotoxin is added to the appropriate tubes and the cells are incubated for 48 hours at 37° C. in 5% CO2. Supernatants are collected at 24 and 48 hours post-infection. Cytokines are measured in supernatants for each variable at 24 and 48 hours to assess the effects of HMOs on the early immune response to RSV. Cytokines are measured using custom Bio-Plex Human cytokine kits from Bio-Rad.
IP-10 is a CXC chemokine that attracts, binds to and activates the CXCR3 receptor on natural killer cells and memory T cells. IP-10 is expressed by monocytes and a number of other cells, and is induced by interferon. A positive correlation exists between RSV clinical disease severity in children (as measured by: length of hospital stay, fever, and number of days supplemental O2 is required) and serum IP-10. Therefore, a decrease in IP-10 signals a decrease in severity of RSV disease experienced.

H1N1 influenza virus [2] = type: cell-based; conditions: for IC50 (mg HMO/mL) H1N1 Influenza: HMOs added at 1 mg/mL or 10 mg/mL, virus dose about 500-1,000 units/mL
[3] = tested on: monocyte-derived cytokines; assay: monocyte-derived cytokines in supernatants of HMO-pretreated PBMCs with or without RSV; type: cell-based, human
Method: as §1

interleukin 10 (IL-10) = assay: IL-10 in supernatants of HMO-pretreated PBMCs with or without RSV; type: cell-based, human; conditions: PBMCs in the presence or absence of RSV; FIGS. 7-10
Method: as §1

[4] = tested on: human parainfluenza virus (HPIV3); type: cell-based; conditions: HMOs added at 1 mg/mL or 10 mg/mL; virus dose about 500-1,000 units/mL
H1N1 influenza virus [5] = type: cell-based; conditions: 10 mg/mL HMO; MDCK cells; FIG. 1
[6] = PBMCs in the presence or absence of the virus

| SMILES | IC50 (mg HMO/mL) RSV [1] [mg HMO/mL] | IP-10 in virus-infected variables (IP-10) | IP-10 level compared with uninfected controls (IP-10; RSV-infected PBMCs) | downregulation of IP-10 compared with 3′SL (IP-10; RSV-infected PBMCs) | reducing inflammation caused by RSV (IP-10) | IC50 (mg HMO/mL) H1N1 Influenza (H1N1 influenza virus [2]) [mg HMO/mL] | production of monocyte-derived cytokines (immunomodulatory) [3, 6] | IL-10 concentration (interleukin 10 (IL-10)) | RSV-induced IP-10, Donor B (IP-10; RSV-infected PBMCs, Donor B, 0.1-0.5 mg/mL) | RSV-induced IP-10, Donor E (IP-10; RSV-infected PBMCs, Donor E, 0.1-0.5 mg/mL) | IC50 (mg HMO/mL) HPIV3 [4] [mg HMO/mL] | anti-viral activity against H1N1 influenza virus (H1N1 influenza virus [2]; HMO at 1 mg/mL) | production of monocyte-derived cytokines (immunomodulatory) ([3]; PBMCs in the absence of the virus) | inhibition of virus infectivity (H1N1 influenza virus [5]) |
| --- | --- | --- | --- | --- | --- | --- | --- | --- | --- | --- | --- | --- | --- | --- |
| CC(=O)N[C@H]1[C@H](O[C@H]2[C@@H](O)[C@@H](CO)O[C@@H](O[C@H]3[C@H](O)[C@@H](O)C(O)O[C@@H]3CO)[C@@H]2O)O[C@H](CO)[C@@H](O[C@@H]2O[C@H](CO)[C@H](O)[C@H](O)[C@H]2O)[C@@H]1O (mixture of isomers) [LNnT, lacto-N-neotetraose] | >10 | clearly downregulates IP-10 | reduce IP-10 to levels found in uninfected controls | more effective than 3′SL | effective | >10 | induces and/or modifies the production of monocyte-derived cytokines such as IL-10, MIP-1β, Interferon-γ, IL-8, IL-1α, IL-1β, and IL-1ra | increases IL-10 concentration in a dose-dependent manner |  |  |  |  |  |  |
| CC(=O)N[C@H]1[C@H]([C@H](O)[C@H](O)CO)O[C@@](O[C@H]2[C@@H](O)[C@@H](CO)O[C@@H](O[C@H]3[C@H](O)[C@@H](O)C(O)O[C@@H]3CO)[C@@H]2O)(C(=O)O)C[C@@H]1O (stereo partly drawn) [3′SL, 3′-sialyllactose] | >10 | dampen RSV-induced IP-10 |  |  | effective | ~5 | induces and/or modifies the production of monocyte-derived cytokines such as MIP-1β, Interferon-γ, IL-8, and IL-1ra |  | not effective | downregulates RSV-induced IP-10 | >10 | inhibited |  |  |
| CC(=O)N[C@H]1[C@H]([C@H](O)[C@H](O)CO)O[C@@](OC[C@H]2O[C@@H](O[C@H]3[C@H](O)[C@@H](O)[C@H](O)O[C@@H]3CO)[C@H](O)[C@@H](O)[C@H]2O)(C(=O)O)C[C@@H]1O [6′SL, 6′-sialyllactose] | >10 | downregulates IP-10 | reduce IP-10 to levels found in uninfected controls | more effective than 3′SL | effective | ~10 |  | increases interleukin 10 (IL-10) concentration in a dose-dependent manner |  |  | >10 |  | induces and/or modifies the production of monocyte-derived cytokines such as IL-10, MIP-1β, Interferon-γ, IL-8, IL-1α, IL-1β, and IL-1ra | approximately 60% |
